Measurements taken from patent US9776991B2, “Thienomethylpiperazine derivatives as inhibitors of soluble epoxide hydrolase” (SANOFI, priority 2013, dated 2017).

Molecular target: recombinant sEH (soluble epoxide hydrolase, EPHX2) (Homo sapiens (Human), UniProt P34913)
Assay: biochemical fluorometric sEH inhibition assay with Phome substrate
Conditions: recombinant sEH purified from Sf9 insect cells, 2 nM sEH, 5 μM Phome, 60 minutes at 30° C.
Summary of the method: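 Human sEH expressed in Sf9 cells (2 nM final) pre-incubated 15 min at 30 °C with compound (0.0001-10 μM), then 5 μM Phome added for 60 min at 30 °C in 25 mM Hepes with 0.01% albumin. Fluorescent 6-methoxy-2-naphthaldehyde read before substrate addition and at the end; IC50 from % inhibition.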

Sequence of recombinant sEH (soluble epoxide hydrolase, EPHX2) (P34913 whole entry): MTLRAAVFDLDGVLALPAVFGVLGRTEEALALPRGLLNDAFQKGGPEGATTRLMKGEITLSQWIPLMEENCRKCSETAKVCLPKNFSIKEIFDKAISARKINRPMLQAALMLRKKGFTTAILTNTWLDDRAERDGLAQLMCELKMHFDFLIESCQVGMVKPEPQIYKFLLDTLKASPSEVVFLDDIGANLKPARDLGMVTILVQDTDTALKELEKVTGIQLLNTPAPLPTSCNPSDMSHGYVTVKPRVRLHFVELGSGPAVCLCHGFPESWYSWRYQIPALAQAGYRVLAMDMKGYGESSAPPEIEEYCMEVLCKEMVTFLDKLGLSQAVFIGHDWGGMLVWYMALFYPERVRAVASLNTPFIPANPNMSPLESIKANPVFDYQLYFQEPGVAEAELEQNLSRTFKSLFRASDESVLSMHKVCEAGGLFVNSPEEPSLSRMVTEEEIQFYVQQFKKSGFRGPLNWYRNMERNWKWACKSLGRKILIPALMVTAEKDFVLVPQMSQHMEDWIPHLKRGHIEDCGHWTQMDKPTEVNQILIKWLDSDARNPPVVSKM

| IC50 [nM] | Structure (SMILES) |
| --- | --- |
| 18.8 | CO[C@H](C)C(=O)N1CCN(Cc2ncc(C(=O)NCc3ccc(Cl)cc3Cl)s2)CC1 [Example 204] |
| 5.7 | COCC1(C(=O)N2CCN(Cc3ncc(C(=O)NCc4ccc(Cl)cc4Cl)s3)CC2)CC1 [Example 205] |
| 5.24 | Cc1n[nH]c(C)c1C(=O)N1CCN(Cc2ncc(C(=O)NCc3ccc(Cl)cc3Cl)s2)CC1 [Example 206] |
| 6.31 | COC(C)(C)C(=O)N1CCN(Cc2ncc(C(=O)NCc3ccc(Cl)cc3Cl)s2)CC1 [Example 207] |
| 9.67 | O=C(NCc1ccc(Cl)cc1Cl)c1cnc(CN2CCN(C(=O)C3CCO3)CC2)s1 (centres unmarked) [Example 208] |
| 3.49 | O=C(NCc1ccc(Cl)cc1Cl)c1cnc(CN2CCN(C(=O)C3CCC(O)C3)CC2)s1 (centres unmarked) [Example 209] |
| 52.4 | O=C(NCc1ccc(Cl)cc1Cl)c1cnc(CN2CCN(C(=O)CN3C[C@@H](O)CC3=O)CC2)s1 [Example 210] |
| 90.9 | O=C(NCc1ccc(Cl)cc1Cl)c1cnc(CN2CCN(C(=O)CN3CCC(O)C3)CC2)s1 (centres unmarked) [Example 211] |

The next lines start with the compound.

| Structure (SMILES) | IC50 [nM] |
| --- | --- |
| COCC(=O)N1CCN(Cc2ncc(C(=O)NCc3ccc(Cl)cc3Cl)s2)CC1 [Example 192] | 35.3 |
| O=C(NCc1ccc(Cl)cc1Cl)c1cnc(CN2CCN(C(=O)CN3CCOC3=O)CC2)s1 [Example 193] | 15.2 |
| Cc1cccnc1C(=O)N1CCN(Cc2ncc(C(=O)NCc3ccc(Cl)cc3Cl)s2)CC1 [Example 194] | 32 |
| N#CCC(=O)N1CCN(Cc2ncc(C(=O)NCc3ccc(Cl)cc3Cl)s2)CC1 [Example 195] | 73.6 |
| COc1cccnc1C(=O)N1CCN(Cc2ncc(C(=O)NCc3ccc(Cl)cc3Cl)s2)CC1 [Example 196] | 36.4 |
| CN1CC(C(=O)N2CCN(Cc3ncc(C(=O)NCc4ccc(Cl)cc4Cl)s3)CC2)CC1=O (centres unmarked) [Example 197] | 49.5 |
| CC(C)[C@@H](O)C(=O)N1CCN(Cc2ncc(C(=O)NCc3ccc(Cl)cc3Cl)s2)CC1 [Example 198] | 13.3 |
| CN(C)CCC(=O)N1CCN(Cc2ncc(C(=O)NCc3ccc(Cl)cc3Cl)s2)CC1 [Example 199] | 208 |
| NC1(C(=O)N2CCN(Cc3ncc(C(=O)NCc4ccc(Cl)cc4Cl)s3)CC2)CC1 [Example 200] | 2.57 |
| O=C(NCc1ccc(Cl)cc1Cl)c1cnc(CN2CCN(C(=O)C3(O)CC3)CC2)s1 [Example 201] | 6.37 |
| COc1cccc(C(=O)N2CCN(Cc3ncc(C(=O)NCc4ccc(Cl)cc4Cl)s3)CC2)n1 [Example 202] | 13.3 |
| O=C1NCC(C(=O)N2CCN(Cc3ncc(C(=O)NCc4ccc(Cl)cc4Cl)s3)CC2)N1 (centres unmarked) [Example 203] | 36.3 |
